Measured values from ChEMBL document CHEMBL1134820, “Synthesis of antitumor dendritic imides” (Bioorg Med Chem Lett, 2001).

Tests used:
HT-29 = assay: Cytotoxic effect on human colon carcinoma HT-29 cell line; type: functional; conditions: read-out: ID50 (the source's name)
[1] = biological target: Tyrosine-protein kinase Lck (Homo sapiens, UniProt P06239); assay: Inhibition of lck catalytic domain expressed in baculovirus
Tyrosine-protein kinase Lck, sequence (P06239 whole entry, the tested form may be a part): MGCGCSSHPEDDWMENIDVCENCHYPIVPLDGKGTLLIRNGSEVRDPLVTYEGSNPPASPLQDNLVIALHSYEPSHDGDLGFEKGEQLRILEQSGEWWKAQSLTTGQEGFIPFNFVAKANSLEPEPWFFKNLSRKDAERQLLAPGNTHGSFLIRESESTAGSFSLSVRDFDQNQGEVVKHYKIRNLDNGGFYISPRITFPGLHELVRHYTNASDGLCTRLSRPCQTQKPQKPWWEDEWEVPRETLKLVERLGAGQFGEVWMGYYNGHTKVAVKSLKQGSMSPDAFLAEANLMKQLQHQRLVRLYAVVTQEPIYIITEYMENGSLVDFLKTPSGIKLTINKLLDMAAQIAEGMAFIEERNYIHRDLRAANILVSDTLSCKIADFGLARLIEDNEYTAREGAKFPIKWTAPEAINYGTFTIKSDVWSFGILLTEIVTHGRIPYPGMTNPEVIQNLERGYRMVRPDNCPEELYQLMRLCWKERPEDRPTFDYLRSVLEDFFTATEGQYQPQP

Compound | IC50 (HT-29) | IC50 [1]
CN(C)CCN1C(=O)c2cccc3cc(N)cc(c23)C1=O [AMONAFIDE] | 38 µM | –
NCCCN(CCCN)CCCN(CCCN(CCCN)CCCN)CCCN(CCCN(CCCN(CCCN)CCCN)CCCN(CCCN)CCCN)CCN1C(=O)c2cccc3cccc(c23)C1=O | 44 µM | –
N#CCCN(CCC#N)CCCN(CCCN(CCC#N)CCC#N)CCCN(CCCN(CCCN(CCC#N)CCC#N)CCCN(CCC#N)CCC#N)CCN1C(=O)c2cccc3cc([N+](=O)[O-])cc(c23)C1=O | > 100 µM | –
O=C1c2cccc3cccc(c23)C(=O)N1CCNCCCNCCN1C(=O)c2cccc3cccc(c23)C1=O [ELINAFIDE] | 0.014 µM | –
N#CCCN(CCC#N)CCCN(CCCN(CCC#N)CCC#N)CCCN(CCCN(CCCN(CCC#N)CCC#N)CCCN(CCC#N)CCC#N)CCN1C(=O)c2cccc3cc(N)cc(c23)C1=O | > 100 µM | –
N#CCCN(CCC#N)CCCN(CCCN(CCC#N)CCC#N)CCCN(CCCN(CCCN(CCC#N)CCC#N)CCCN(CCC#N)CCC#N)CCN1C(=O)C(c2ccccc2)=C(c2ccccc2)C1=O | 57 µM | > 50 µM
N#CCCN(CCC#N)CCCN(CCCN(CCC#N)CCC#N)CCCN(CCN)CCCN(CCCN(CCC#N)CCC#N)CCCN(CCC#N)CCC#N | > 100 µM | –
N#CCCN(CCC#N)CCCN(CCCN(CCC#N)CCC#N)CCCN(CCCN(CCCN(CCC#N)CCC#N)CCCN(CCC#N)CCC#N)CCN1C(=O)c2cccc3cccc(c23)C1=O | > 100 µM | > 50 µM
NCCCN(CCCN)CCCN(CCCN(CCCN)CCCN)CCCN(CCCN(CCCN(CCCN)CCCN)CCCN(CCCN)CCCN)CCN1C(=O)C(c2ccccc2)=C(c2ccccc2)C1=O | 100 µM | –
